From the NIST ThermoML archive (doi:10.1016/j.jct.2016.04.001)
Numbers after ± are expanded uncertainties.

Key:
[1] = 296 K; 101.33 kPa; Crystal; X-ray diffraction
[2] = molar heat capacity at constant pressure; settings: 101.33 kPa, Crystal, Small sample (50 mg) DSC

Structure (SMILES): CCCCC(O)(Cn1cncn1)c1ccc(Cl)cc1Cl (configuration not stated)
- mass density [1]: 1331 ± 7 kg/m3
- molar heat capacity at constant pressure ([2]; 283.15 K): 342.68 ± 8.7 J/K/mol
- molar heat capacity at constant pressure ([2]; 288.15 K): 351.02 ± 8.9 J/K/mol
- molar heat capacity at constant pressure ([2]; 293.15 K): 358.22 ± 9.1 J/K/mol
- molar heat capacity at constant pressure ([2]; 298.15 K): 364.66 ± 9.2 J/K/mol
- molar heat capacity at constant pressure ([2]; 303.15 K): 370.65 ± 9.4 J/K/mol
- molar heat capacity at constant pressure ([2]; 308.15 K): 376.44 ± 9.5 J/K/mol
- molar heat capacity at constant pressure ([2]; 313.15 K): 382.23 ± 9.7 J/K/mol
- molar heat capacity at constant pressure ([2]; 318.15 K): 388.15 ± 9.8 J/K/mol
- molar heat capacity at constant pressure ([2]; 323.15 K): 394.25 ± 10 J/K/mol
- molar heat capacity at constant pressure ([2]; 328.15 K): 400.53 ± 10 J/K/mol
- molar heat capacity at constant pressure ([2]; 333.15 K): 406.94 ± 10 J/K/mol
- molar heat capacity at constant pressure ([2]; 338.15 K): 413.34 ± 10 J/K/mol
- molar heat capacity at constant pressure ([2]; 343.15 K): 419.55 ± 11 J/K/mol
- molar heat capacity at constant pressure ([2]; 348.15 K): 425.32 ± 11 J/K/mol
- molar heat capacity at constant pressure ([2]; 353.15 K): 430.33 ± 11 J/K/mol

Structure (SMILES): CC(C)(C)C(O)/C(=C\c1ccc(Cl)cc1Cl)n1cncn1 (configuration not stated) [Diniconazole]
- mass density [1]: 1323 ± 7 kg/m3
- molar heat capacity at constant pressure ([2]; 283.15 K): 360.4 ± 9.1 J/K/mol
- molar heat capacity at constant pressure ([2]; 288.15 K): 367.41 ± 9.2 J/K/mol
- molar heat capacity at constant pressure ([2]; 293.15 K): 374.58 ± 9.4 J/K/mol
- molar heat capacity at constant pressure ([2]; 298.15 K): 381.72 ± 9.6 J/K/mol
- molar heat capacity at constant pressure ([2]; 303.15 K): 388.72 ± 9.8 J/K/mol
- molar heat capacity at constant pressure ([2]; 308.15 K): 395.47 ± 9.9 J/K/mol
- molar heat capacity at constant pressure ([2]; 313.15 K): 401.89 ± 10 J/K/mol
- molar heat capacity at constant pressure ([2]; 318.15 K): 407.93 ± 10 J/K/mol
- molar heat capacity at constant pressure ([2]; 323.15 K): 413.6 ± 10 J/K/mol
- molar heat capacity at constant pressure ([2]; 328.15 K): 418.9 ± 11 J/K/mol
- molar heat capacity at constant pressure ([2]; 333.15 K): 423.89 ± 11 J/K/mol
- molar heat capacity at constant pressure ([2]; 338.15 K): 428.65 ± 11 J/K/mol
- molar heat capacity at constant pressure ([2]; 343.15 K): 433.27 ± 11 J/K/mol
- molar heat capacity at constant pressure ([2]; 348.15 K): 437.91 ± 11 J/K/mol
- molar heat capacity at constant pressure ([2]; 353.15 K): 442.73 ± 11 J/K/mol
